Data: US12171229B2, “Heteroaryl-triazole and heteroaryl-tetrazole compounds as pesticides” (BAYER AKTIENGESELLSCHAFT, priority 2018, dated 2024)

Key:
Format in all cases: in vivo
Boophilus microplus = Boophilus microplus injection test; details: Rhipicephalus microplus, 168 h; 20 μg/animal injected into the abdomen; adult engorged female ticks; egg deposition after 7 days; read-out: efficacy (infertile eggs)
Procedure, shortened: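 Five engorged adult female ticks received a 1 μl abdominal injection of compound in DMSO. They were then held in a climate chamber, with egg deposition checked after 7 days. Unclear eggs were kept until hatching at about 42 days, and efficacy was scored as the percentage of infertile eggs.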

Ctenocephalides felis [1] = assay: Ctenocephalides felis oral test; details: 48 h, 100 ppm in cattle blood, after 2 days, adult unfed cat fleas
Procedure, shortened: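 About 20 unfed adult cat fleas feed through parafilm on cattle blood dosed with compound from a DMSO stock. Blood chamber at 37° C, fleas at room temperature. Percent mortality scored after 2 days.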

Diabrotica balteata = Diabrotica balteata spray test; details: Diabrotica balteata, in Triticum aestivum, 168 h, after 7 days, larvae on wheat seeds, read-out: efficacy (seedlings grown up); for pest or weed control at 80 µg/disc, 250 g/ha: 80 μg/well (=250 g/ha); for pest or weed control at 160 µg/disc, 500 g/ha: 160 μg/well (=500 g/ha)
Procedure, shortened: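 Germinated wheat seeds (5 per well, 1 day on agar) sprayed with compound diluted in water containing 1000 ppm emulsifier, then infested with 10–20 D. balteata larvae. Efficacy scored after 7 days: 100% = seedlings like untreated uninfested control, 0% = no seedlings grown.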

Nezara viridula = Nezara viridula spray test; details: 96 h, after 4 days, larvae on barley plants
Procedure, shortened: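 Barley plants infested with Nezara viridula larvae were sprayed with compound diluted in water containing 1000 ppm emulsifier. Percent mortality was scored 4 days later, where 100% means all bugs killed and 0% none.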

Phaedon cochleariae = Phaedon cochleariae spray test; details: foliar, 168 h, after 7 days, larvae on Chinese cabbage leaf disks
Protocol: Phaedon Cochleariae—Spray Test
(§1) To produce a suitable preparation of active compound, 1 part by weight of active compound is mixed with the stated amount of solvents and is diluted with water, containing an emulsifier concentration of 1000 ppm, to the desired concentration. Further test concentrations are prepared by dilution with emulsifier containing water.
Chinese cabbage (Brassica pekinensis) leaf disks are sprayed with a preparation of the active ingredient of the desired concentration. Once dry, the leaf disks are infested with mustard beetle larvae (Phaedon cochleariae).
After 7 days mortality in % is determined. 100% means all beetle larvae have been killed and 0% means none of the beetle larvae have been killed.

Spodoptera frugiperda = Spodoptera frugiperda spray test; details: 168 h, after 7 days, larvae on maize leaf sections
Procedure, shortened: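 Caterpillars are placed on sprayed, dried maize leaf sections. Sprays contain compound diluted in water with emulsifier at 1000 ppm; mortality in % is determined 7 days later.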

Myzus persicae [2] = assay: Myzus persicae oral test; details: 120 h, after 5 days
Procedure, shortened: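 Aphid mortality (%) was recorded 5 days after a mixed Myzus persicae population began sucking, through parafilm, on compound solutions (acetone stock diluted with water) combined with sugar-supplemented IPL41 medium.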

Ctenocephalides felis [3] = assay: Ctenocephalides felis in-vitro contact test, adult cat flea; details: 5 μg/cm^2 (=500 g/ha), after 48 hours, adult cat fleas, read-out: efficacy (fleas dead or moribund)
Procedure, shortened: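 Compound in acetone coated onto inner walls of glass tubes, e.g. 900 ppm giving 5 μg/cm². After drying, 5–10 adult C. felis added per tube and held at room temperature. At 48 h, fleas unable to escape a 45–50 °C heating plate within 5 min scored dead/moribund, giving % efficacy.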

Rhipicephalus sanguineus = Rhipicephalus sanguineus in-vitro contact test, adult brown dog ticks; details: 5 μg/cm^2 (=500 g/ha), after 48 hours, read-out: efficacy (ticks dead or moribund)
Protocol: Rhipicephalus Sanguineus—In-Vitro Contact Tests with Adult Brown Doe Ticks
9 mg compound is solved in 1 ml acetone and diluted with acetone to the desired concentration. 250 μl of the test solution is filled in 25 ml glass test tubes and homogeneously distributed on the inner walls by rotation and tilting on a shaking device (2 h at 30 rpm). With a compound concentration of 900 ppm, an inner surface of 44.7 cm^2 and a homogeneous distribution, a dose of 5 μg/cm^2 is achieved.
After the solvent has evaporated, each test tube is filled with 5-10 adult brown dog ticks (Rhipicephalus sanguineus), closed with a perforated lid and incubated in a lying position at room temperature and relative humidity. After 48 hours efficacy is determined. The ticks are patted on the ground of the tubes and are incubated on a heating plate at 45-50° C. for at most 5 minutes. Immotile or uncoordinated moving ticks, which are not able to escape the heat by climbing upwards, are marked as dead or moribund.
An efficacy of 100% means all ticks are dead or moribund; 0% means no ticks are dead or moribund.

[4] = system: cattle ticks (Boophilus microplus) strane Parhurst, SP-resistant; assay: Boophilus microplus dip test; details: Rhipicephalus microplus, 168 h, engorged adult female cattle ticks, egg deposition after 7 days, read-out: efficacy (infertile eggs)
Protocol: Boophilus microplus—Dip Test
Test animal: cattle ticks (Boophilus microplus) strane Parhurst, SP-resistant
Solvent: dimethyl sulfoxide
To produce a suitable preparation of active compound, 10 mg of active compound are dissolved in 0.5 ml solvent, and the concentrate is diluted with water to the desired concentration.
This compound solution is pipetted into tubes. 8-10 engorged, adult, female cattle ticks (Boophilus microplus) are placed in perforated tubes. These tubes are immersed in the aqueous compound solution until the ticks are completely moistened. After the liquid has drained off, the ticks are transferred to a filter paper in a plastic tray and stored in a climate chamber.
After 7 days egg deposition of fertile eggs is monitored. Eggs where fertility is not visible are stored in a climate chamber till hatching after about 42 days. An efficacy of 100% means all eggs are infertile; 0% means all eggs are fertile.

Nilaparvata lugens = Nilaparvata lugens spray test; details: 336 h, after 14 days, rice plants
Protocol: Nilaparvata lugens—Spray Test
as §1
Rice plants (Oryza sativa) are sprayed with a preparation of the active ingredient of the desired concentration and the plants are infested with the brown planthopper (Nilaparvata lugens).
After 14 days mortality in % is determined. 100% means all planthoppers have been killed and 0% means none of the planthoppers have been killed.

Myzus persicae [5] = assay: Myzus persicae spray test; details: foliar, 120 h, after 5 days, Chinese cabbage leaf disks
Procedure, shortened: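 Chinese cabbage leaf disks infested with all aphid instars were sprayed with compound diluted in water containing emulsifier (1000 ppm). Mortality (%) was scored after 5 days, 100% meaning all aphids killed.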

[6] = system: Aedes aegypti strain MONHEIM; assay: Aedes aegypti test (AEDSAE surface treatment & contact assay); details: 24 hours after contact, read-out: efficacy (mortality)
Procedure, shortened: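 Compound dissolved in acetone (2 mg/ml) with 2000 ppm rapeseed oil methyl ester, applied to glazed tile and dried; adult strain MONHEIM mosquitoes exposed 30 minutes. Percent mortality scored 24 hours after contact.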

[7] = system: Culex quinquefasciatus strain P00; assay: Culex quinquefasciatus test (CULXFA surface treatment & contact assay); details: 24 hours after contact, read-out: efficacy (mortality)
Protocol: Culex Quinquefasciatus Test (CULXFA Surface Treatment & Contact Assay)
(§2) Solvent: Aceton+2000 ppm rapeseed oil methyl ester (RME)
(§3) In order to produce a sufficient, active ingredient containing solution it is necessary to solve the test compound in the solvent-mix (acetone at 2 mg/ml/RME 2000 ppm). This solution is pipetted onto a glazed tile and after evaporation of the acetone, adult mosquitoes of the species Culex quinquefasciatus strain P00 are placed onto the dried surface. The exposure time is 30 minutes.
(§4) Mortality in percent (%) is determined 24 hours after contact of the insects to the treated surface. 100% mortality means that all tested insects are dead, whereas 0% means that no insect died.

[8] = system: Anopheles funestus strain FUMOZ-R; assay: Anopheles funestus test (ANPHFU surface treatment & contact assay); details: 24 hours after contact, read-out: efficacy (mortality)
Protocol: Anopheles funestus Test (ANPHFU Surface Treatment & Contact Assay)
as §2
as §3, with “Anopheles funestus” for “Culex quinquefasciatus”, “FUMOZ-R (Hunt et al., Med. Vet. Entomol. 2005 September; 19(3): 271-275)” for “P00”
as §4

[9] = system: Musca domestica strain WHO-N; assay: Musca domestica test (MUSCDO surface treatment & contact assay); details: 24 hours after contact, read-out: efficacy (mortality)
Protocol: Musca domestica test (MUSCDO surface treatment & contact assay)
as §2
as §3, with “flies” for “mosquitoes”, “Musca domestica” for “Culex quinquefasciatus”, “WHO-N” for “P00”
Mortality in percent (%) is determined 24 hours after contact of the insects to the treated surface. 100% morality means that all tested insects are dead, whereas 0% means that no insect died.

[10] = surface concentration 4 mg/m^2, exposure 30 minutes
[11] = surface concentration 20 mg/m^2, exposure 30 minutes

| Compound | pest or weed control at 0.02 mg (Boophilus microplus) | mortality at 100 ppm (Ctenocephalides felis [1]) | pest or weed control at 80 µg/disc, 250 g/ha (Diabrotica balteata) | pest or weed control at 160 µg/disc, 500 g/ha (Diabrotica balteata) | mortality at 500 g/ha (Nezara viridula) | mortality at 500 g/ha (Spodoptera frugiperda) | mortality at 100 g/ha (Nezara viridula) | mortality at 100 g/ha (Spodoptera frugiperda) | pest or weed control at 5 µg/cm2 (Ctenocephalides felis [3]) | pest or weed control at 5 µg/cm2 (Rhipicephalus sanguineus) | mortality at 500 g/ha (Nilaparvata lugens) | mortality at 4 ppm (Myzus persicae [2]) | mortality at 100 g/ha (Myzus persicae [5]) | mortality at 500 g/ha (Myzus persicae [5]) | other results |
| --- | --- | --- | --- | --- | --- | --- | --- | --- | --- | --- | --- | --- | --- | --- | --- |
| CC(c1ncnn1-c1nc2ccccn2n1)N(CC1CC1)C(=O)c1cc(Cl)cc(C(F)(F)F)c1 (stereo not shown) [Example I-005] | 100% | 100% | 100% | 100% | 100% | 100% | – | – | – | – | – | – | – | – | mortality at 500 g/ha (Phaedon cochleariae): 100% |
| CC(c1ncnn1-c1ncc(C#N)cn1)N(CC1CC1)C(=O)c1cc(Cl)cc(C(F)(F)F)c1 (stereo not shown) [Example I-008] | – | – | 100% | 100% | 90% | 100% | 90% | 100% | – | – | – | – | – | – | mortality at 20 ppm (Myzus persicae [2]; 20 ppm): 100%; mortality at 500 g/ha (Phaedon cochleariae): 100% |
| C[C@H](NC(=O)c1cc(Cl)cc(C(F)(F)F)c1)c1ncnn1-c1ncc(OC(F)F)cn1 [Example I-012] | 100% | 100% | 100% | 100% | 100% | 100% | 100% | 100% | 100% | 100% | 100% | – | – | – | pest or weed control at 100 ppm [4]: 95% |
| C[C@H](NC(=O)c1cc(Cl)cc(C(F)(F)F)c1)c1ncnn1-c1ncc(F)cc1F [Example I-014] | 100% | 100% | 100% | 100% | 100% | 100% | 100% | 100% | – | – | 100% | 100% | 90% | 90% | mortality at 4 mg/m2 [6, 10]: 90 to 100%; mortality at 20 mg/m2 [6, 11]: 90 to 100%; mortality at 4 mg/m2 [7, 10]: 90 to 100%; mortality at 20 mg/m2 [7, 11]: 90 to 100%; mortality at 4 mg/m2 [8, 10]: 85 to 100%; mortality at 20 mg/m2 [8, 11]: 90 to 100%; mortality at 4 mg/m2 [9, 10]: 90 to 100%; mortality at 20 mg/m2 [9, 11]: 90 to 100% |
| C[C@H](NC(=O)c1cc(Cl)cc(C(F)(F)F)c1)c1ncnn1-c1ccc(N(S(C)(=O)=O)S(C)(=O)=O)cn1 [Example I-037] | 100% | 100% | 100% | 100% | 100% | – | 100% | 100% | 100% | – | 100% | – | 90% | 90% | pest or weed control at 100 ppm [4]: 100% |
| C[C@H](NC(=O)c1cncc(C(F)(F)F)c1)c1ncnn1-c1ccc(C#N)cn1 [Example I-067] | 100% | 100% | 100% | 100% | 100% | 100% | 100% | 100% | 100% | 100% | 90% | 100% | 90% | 90% | – |
| C[C@H](NC(=O)c1cc(Cl)cc(C(F)(F)F)c1)c1ncnn1-c1ccc(-n2cccn2)cn1 [Example I-074] | 100% | 80% | 100% | 100% | – | 100% | – | 100% | 80% | 80% | – | – | – | – | – |
| C[C@H](NC(=O)c1cc(C(F)(F)F)cc(C(F)(F)F)c1)c1ncnn1-c1ncc(F)cc1F [Example I-077] | 100% | 100% | 100% | 100% | 100% | 100% | 100% | 100% | 100% | – | 100% | 100% | 90% | 90% | – |
